Reference: patent publication US20170050957A1, “4-AMINO-6-(HETEROCYCLIC)PICOLINATES AND 6-AMINO-2-(HETEROCYCLIC)PYRIMIDINE-4-CARBOXYLATES AND THEIR USE AS HERBICIDES” (Dow AgroSciences LLC, priority 2013, published 2017)
Read-outs that look alike come from different tables or passages of the source.

Legend:
Format in all cases: in vivo
[1] = tested on: Key Broadleaf Weed and Crop Species; assay: Post-emergent Test II herbicidal activity (Table 15); conditions: post-emergence, 336 h, 14 d; for pest or weed control at 35 g/ha: 35 g ai/ha; for pest or weed control at 70 g/ha: 70 g ai/ha; for pest or weed control at 140 g/ha: 140 g ai/ha
Outline: (§1)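 Herbicidal effect scored as percent visual injury, 14 d after post-emergent application. Spray solutions contained acetone, DMSO, isopropyl alcohol, crop oil concentrate and surfactant, applied at 187 L/ha to young plants (1-2 true leaves).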

[2] = tested on: Key Grass and Sedge Weeds as well as Grass Crops; assay: Post-emergent Test II herbicidal activity (Table 16); conditions: post-emergence, 336 h, 14 d; for pest or weed control at 35 g/ha: 35 g ai/ha; for pest or weed control at 70 g/ha: 70 g ai/ha; for pest or weed control at 140 g/ha: 140 g ai/ha
Outline: as §1

[3] = tested on: barnyardgrass (Echinochloa crs-galli); assay: Pre-emergent Test I herbicidal activity; conditions: 3.96 Kg ai/ha
Method: (§2) Pre-emergent Test I Seeds of test species were planted into round plastic pots (5-inch diameter) containing sandy loam soil. After planting, all pots were sub-irrigated 16 h prior to compound application. Compounds were dissolved in a 97:3 v/v (volume/volume) mixture of acetone and dimethyl sulfoxide (DMSO) and diluted to the appropriate concentration in a final application solution containing water, acetone, isopropanol, DMSO and Agri-dex (crop oil concentrate) in a 59:23:15:1.0:1.5 v/v ratio and 0.02% w/v (weight/volume) of Triton X-155 to obtain the spray solution containing the highest application rate. The high application rate was serial diluted with the above application solution to provide delivery of the compound at rates 1/2×, 1/4× and 1/8× of the highest rate (equivalent to 4.0, 2.0, 1.0, and 0.5 kg/ha, respectively). Formulated compound (2.7 mL) was applied pipetted evenly over the soil surface followed by incorporation with water (15 mL). Following treatment, pots were returned to the greenhouse for the duration of the experiment. The greenhouse was programmed for an approximate 15 h photoperiod which was maintained at about 23-29° C. during the day and 22-28° C. during the night. Nutrients and water were added on a regular basis through surface irrigation and supplemental lighting was provided with overhead metal halide 1000-Watt lamps as necessary. Herbicidal effect ratings were obtained 14 days after treatment. All evaluations were made relative to appropriate controls on a scale of 0 to 100 where 0 represents no herbicidal effect and 100 represents plant death or lack of emergence from the soil.

[4] = tested on: ivyleaf morningglory (Ipomoea hederecea); assay: Pre-emergent Test I herbicidal activity; conditions: 3.96 Kg ai/ha
Method: as §2

[5] = tested on: sunflower (Helianthus annuus); assay: Pre-emergent Test I herbicidal activity; conditions: 3.96 Kg ai/ha
Method: as §2

[6] = tested on: wild oats (Avena fatua); assay: Pre-emergent Test I herbicidal activity; conditions: 3.96 Kg ai/ha
Method: as §2

[7] = tested on: giant foxtail (Setaria faberi); assay: Pre-emergent Test I herbicidal activity; conditions: 3.96 Kg ai/ha
Method: as §2

[8] = Abutilon theophrasti, velvetleaf (Abutilon theophrasti), read-out: Visual Growth Reduction (%) 14 Days After Application, ABUTH
[9] = Amaranthus retroflexus, redroot pigweed (Amaranthus retroflexus), read-out: Visual Growth Reduction (%) 14 Days After Application, AMARE
[10] = Brassica napus, oilseed rape, canola (Brassica napus), read-out: Visual Growth Reduction (%) 14 Days After Application, BRSNN
[11] = Chenopodium album, lambsquarters (Chenopodium album), read-out: Visual Growth Reduction (%) 14 Days After Application, CHEAL
[12] = Euphorbia heterophylla, wild poinsettia (Euphorbia heterophylla), read-out: Visual Growth Reduction (%) 14 Days After Application, EPHHL
[13] = Helianthus annuus, sunflower (Helianthus annuus), read-out: Visual Growth Reduction (%) 14 Days After Application, HELAN
[14] = Cyperus esculentus, yellow nutsedge (Cyperus esculentus), read-out: Visual Growth Reduction (%) 14 Days After Application, CYPES
[15] = Echinochloa crus-galli, barnyardgrass (Echinochloa crus-galli), read-out: Visual Growth Reduction (%) 14 Days After Application, ECHCG
[16] = Oryza sativa, rice (Oryza sativa), read-out: Visual Growth Reduction (%) 14 Days After Application, ORYSA
[17] = Setaria faberi, giant foxtail (Setaria faberi), read-out: Visual Growth Reduction (%) 14 Days After Application, SETFA
[18] = Triticum aestivum, wheat, spring (Triticum aestivum), read-out: Visual Growth Reduction (%) 14 Days After Application, TRZAS
[19] = Zea mays, maize, corn (Zea mays), read-out: Visual Growth Reduction (%) 14 Days After Application, ZEAMX

COC(=O)c1nc(-c2ccc3ccn(C)c3c2)c(F)c(N)c1Cl [Compound 1.10]
pest or weed control at 35 g/ha [1, 8]: 0 to 29%
pest or weed control at 70 g/ha [1, 8]: 0 to 29%
pest or weed control at 140 g/ha [1, 8]: 0 to 29%
pest or weed control at 35 g/ha [1, 9]: 0 to 29%
pest or weed control at 70 g/ha [1, 9]: 85 to 94%
pest or weed control at 140 g/ha [1, 9]: 95 to 100%
pest or weed control at 35 g/ha [1, 10]: 0 to 29%
pest or weed control at 70 g/ha [1, 10]: 0 to 29%
pest or weed control at 140 g/ha [1, 10]: 0 to 29%
pest or weed control at 35 g/ha [1, 11]: 95 to 100%
pest or weed control at 70 g/ha [1, 11]: 95 to 100%
pest or weed control at 140 g/ha [1, 11]: 95 to 100%
pest or weed control at 35 g/ha [1, 12]: 0 to 29%
pest or weed control at 70 g/ha [1, 12]: 0 to 29%
pest or weed control at 140 g/ha [1, 12]: 0 to 29%
pest or weed control at 35 g/ha [1, 13]: 0 to 29%
pest or weed control at 70 g/ha [1, 13]: 0 to 29%
pest or weed control at 140 g/ha [1, 13]: 45 to 59%
pest or weed control at 35 g/ha [2, 14]: 0 to 29%
pest or weed control at 70 g/ha [2, 14]: 0 to 29%
pest or weed control at 140 g/ha [2, 14]: 0 to 29%
pest or weed control at 35 g/ha [2, 15]: 0 to 29%
pest or weed control at 70 g/ha [2, 15]: 0 to 29%
pest or weed control at 140 g/ha [2, 15]: 0 to 29%
pest or weed control at 35 g/ha [2, 16]: 0 to 29%
pest or weed control at 70 g/ha [2, 16]: 0 to 29%
pest or weed control at 140 g/ha [2, 16]: 0 to 29%
pest or weed control at 35 g/ha [2, 17]: 0 to 29%
pest or weed control at 70 g/ha [2, 17]: 0 to 29%
pest or weed control at 140 g/ha [2, 17]: 0 to 29%
pest or weed control at 35 g/ha [2, 18]: 0 to 29%
pest or weed control at 70 g/ha [2, 18]: 0 to 29%
pest or weed control at 140 g/ha [2, 18]: 0 to 29%
pest or weed control at 35 g/ha [2, 19]: 0 to 29%
pest or weed control at 70 g/ha [2, 19]: 0 to 29%
pest or weed control at 140 g/ha [2, 19]: 0 to 29%
Visual Growth Reduction (%) 14 Days After Application, ECHCG [3]: F (30-44)
Visual Growth Reduction (%) 14 Days After Application IPOHE [4]: G (0-29)
Visual Growth Reduction (%) 14 Days After Application HELAN [5]: G (0-29)
Visual Growth Reduction (%) 14 Days After Application AVEFA [6]: G (0-29)
Visual Growth Reduction (%) 14 Days After Application, SETFA [7]: G (0-29)
